The values below come from patent publication US20250092065A1, “2-(INDAZOL-5-YL)-6-(PIPERIDIN-4-YL)-1,7-NAPHTHYRIDINE DERIVATIVES AND RELATED COMPOUNDS AS MODULATORS FOR SPLICING NUCLEIC ACIDS AND FOR THE TREATMENT OF PROLIFERATIVE DISEASES” (REMIX THERAPEUTICS INC., priority 2022, published 2025).

pIC50: −log10 of the molar value. Like-named read-outs stand apart in the source and are kept apart here. Where only a bound is given, the exact number is not on record here.

A word on the AC50: it is the midpoint of the concentration-response curve, whichever way the signal moves. For orientation: pIC50 means −log10 of the IC50, conventionally taken in molar units.

The test system of one data set is HTT mRNA. The experiment in a line: RT-qPCR splicing assay, HTT mRNA canonical (CJ) and alternative (AJ) junction. The format is cell-based, human. The method, then: (§1) Compounds described herein were used to modulate RNA transcript abundance in cells. The expression of a target mRNA was measured by detecting the formation of an exon-exon junction in the canonical transcript (CJ). A compound mediated exon-inclusion event was detected by observing an increase in formation of a new junction with an alternative exon (AJ). Real-time qPCR assays were used to detect these splicing switches and interrogate the potency of various compounds towards different target genes. A high-throughput real time quantitative PCR (RT-qPCR) assay was developed to measure these two isoforms of the mRNA (CJ and AJ) for exemplary genes, such as HTT, SMN2, and MYB, together with a control housekeeping gene, GAPDH or GUSB or PPIA, used for normalization. Briefly, the A673 or K562 cell line was treated with various compounds described herein (e.g., compounds of Formula (I)). After treatment, the levels of the HTT, MYB, or SMN2 mRNA targets were determined from each sample of cell lysate by cDNA synthesis followed by qPCR.
(§2) The A673 cell line was cultured in DMEM with 10% FBS. Cells were diluted with full growth media and plated in a 96-well plate (15,000 cells in 100 ul media per well). The plate was incubated at 37° C. with 5% CO2 for 24 hours to allow cells to adhere. An 11-point 3-fold serial dilution of the compounds was made in DMSO then diluted in media in an intermediate plate. Compounds were transferred from the intermediate plate to the cell plate with the top dose at a final concentration of 10 uM in the well. Final DMSO concentration was kept at or below 0.25%. The cell plate was returned to the incubator at 37° C. with 5% CO2 for an additional 24 hours.
(§3) The K562 cell line was cultured in IMDM with 10% FBS. For K562, cells were diluted with full growth media and plated in either a 96-well plate (50,000 cells in 50 uL media per well) or a 384-well plate (8,000-40,000 cells in 45 uL media per well). An 11-point 3-fold serial dilution of the compounds were made in DMSO then diluted in media in an intermediate plate. Compound was transferred from the intermediate plate to the cell plate with the top dose at a final concentration of 10 uM in the well. Final DMSO concentration was kept at or below 0.25%. Final volume was 100 uL for 96-well plate and 50 uL for 384-well plate. The cell plate was then placed in an incubator at 37° C. with 5% CO2 for 24 hours.
(§4) The cells were then gently washed with 50 uL-100 uL cold PBS before proceeding to addition of lysis buffer. 30 uL-50 μL of room temperature lysis buffer with DNAse I (and optionally RNAsin) was added to each well. Cells were shaken/mixed thoroughly at room temperature for 5-10 minutes for lysis to take place and then 3 uL-5 μL of room temperature stop solution was added and wells were shaken/mixed again. After 2-5 minutes, the cell lysate plate was transferred to ice for RT-qPCR reaction setup. The lysates could also be frozen at −80° C. for later use.
(§5) In some cases, a direct lysis buffer was used. An appropriate volume of 3× lysis buffer (10 mM Tris, 150 mM NaCl, 1.5%-2.5% Igepal and 0.1-1 U/uL RNAsin, pH 7.4) was directly added to either K562 or A673 cells in media and mixed by pipetting 3 times. The plates were then incubated at room temperature with shaking/rocking for 20-50 minutes to allow for lysis to take place. After this time, the cell lysate plate was transferred to ice to set up for the RT-qPCR reactions. The lysates could also be frozen at −80° C. for later use.
(§6) To set up 10 uL RT-qPCR reactions, cell lysates were transferred to 384-well qPCR plates containing the master mix according to the table below. The plates were sealed, gently vortexed, and spun down before the run. The volumes were adjusted accordingly in some instances where the reaction was carried in 20 μL. The table below summarizes the components of the RT-qPCR reactions:
(§7) The RT-qPCR reaction was performed using a QuantStudio (ThermoFisher) under the following fast cycling conditions. […]
(In general: Quantitative PCR measures a nucleic acid by following its amplification.)

The next data set concerns K562 cells. The experiment in a line: Cell Titer Glo 2.0 cell viability (toxicity) assay, K562. The conditions noted are these: 500 cells/well, 72 hours. In general terms: Cellular ATP, detected with luciferase, serves as a proxy for viable cell number.
A further data set has as its system MYB mRNA. Briefly: RT-qPCR splicing assay, MYB mRNA canonical (CJ) and alternative (AJ) junction. The format is cell-based, human. As for the experimental part:
as §1, §2, §3, §4, §5, §6, §7

The next data set has as its system SMN2 mRNA. Briefly: RT-qPCR splicing assay, SMN2 mRNA. The format is cell-based, human. The conditions noted are these: canonical junction qPCR panel, Table 4, read-out: SMN2 IC50 (decrease in CJ mRNA levels). As for the experimental part:
as §1, §2, §3, §4, §5, §6, §7

[1] abbreviates: Homo sapiens, RT-qPCR, HTT alternative junction mRNA increase, read-out: HTT AJ (increase in alternative junction mRNA, AC50).
Where [2] appears, read: Homo sapiens, RT-qPCR, HTT canonical junction mRNA decrease, read-out: HTT CJ (decrease in canonical junction mRNA, IC50).
Setting [3] is: Homo sapiens, canonical junction qPCR panel, Table 4, read-out: HTT IC50 (decrease in CJ mRNA levels).
The mark [4] stands for this setting: Homo sapiens, RT-qPCR, MYB alternative junction mRNA increase, read-out: MYB AJ (increase in alternative junction mRNA, AC50).
Where [5] appears, read: Homo sapiens, RT-qPCR, MYB canonical junction mRNA decrease, read-out: MYB CJ (decrease in canonical junction mRNA, IC50).
Where [6] appears, read: Homo sapiens, canonical junction qPCR panel, Table 4, read-out: MYB IC50 (decrease in CJ mRNA levels).

Take `C[C@H]1CN(c2ccc3nc(-c4cc(F)c5nc(CO)cn5c4)ncc3c2)C[C@H](C)N1` (single isomer, unassigned) [Compound 828]: the AC50 is 1000 to 10000 nM in the data set on HTT mRNA (setting [1]) and < 100 nM with MYB mRNA (setting [4]). In addition, the pIC50 was 6.00 to 7.00 with HTT mRNA (setting [2]); 6.00 to 7.00 with HTT mRNA (setting [3]); > 7.00 in the data set on MYB mRNA (setting [5]); > 7.00 in the data set with MYB mRNA (setting [6]); > 7.00 in the data set with SMN2 mRNA (Homo sapiens). For the same compound, the “Effect of Exemplary Compounds on Cell Viability, K562” value (shortened to “Effect of Exemplary Compounds”) with K562 cells was “B (B represents 100-1000 nM)”.
Turning to `Cn1cc2cc(-c3ccc4nc(N5CCN6CCCC6C5)ccc4n3)c(O)cc2n1` (centres unmarked) [Compound 134], the AC50 in the data set on HTT mRNA (Homo sapiens, HTT alternative junction mRNA, RT-qPCR, read-out: HTT AJ (increase in AJ mRNA, AC50)) was 1000 to 10000 nM; in the data set on MYB mRNA (Homo sapiens, MYB alternative junction mRNA, RT-qPCR, read-out: MYB AJ (increase in AJ mRNA, AC50)), 100 to 1000 nM. For the same compound, the pIC50 was 5.00 to 6.00 in the data set on HTT mRNA (Homo sapiens, HTT canonical junction mRNA, RT-qPCR, read-out: HTT CJ (decrease in CJ mRNA levels, IC50)); 5.00 to 6.00 in the data set with HTT mRNA (setting [3]); 6.00 to 7.00 in the data set with MYB mRNA (Homo sapiens, MYB canonical junction mRNA, RT-qPCR, read-out: MYB CJ (decrease in CJ mRNA levels, IC50)); 6.00 to 7.00 in the data set with MYB mRNA (setting [6]); > 7.00 with SMN2 mRNA (Homo sapiens). Moreover, the “Effect of Exemplary Compounds” value in the data set with K562 cells was “C (C represents 1000-9999 nM)”.
Take `Cc1c(O)c(-c2ccc3nc(N4CCC(NC(C)(C)C)C4)ccc3n2)cc2cn(C)nc12` (centres unmarked) [Compound 275]: the AC50 with HTT mRNA (HTT alternative junction mRNA, RT-qPCR, read-out: HTT AJ (increase in AJ mRNA, AC50)) was < 100 nM; in the data set with MYB mRNA (MYB alternative junction mRNA, RT-qPCR, read-out: MYB AJ (increase in AJ mRNA, AC50)), < 100 nM. The pIC50 in the data set with HTT mRNA (HTT canonical junction mRNA, RT-qPCR, read-out: HTT CJ (decrease in CJ mRNA levels, IC50)) was > 7.00; in the data set with HTT mRNA (canonical junction qPCR panel, Table 4, read-out: HTT IC50 (decrease in CJ mRNA levels)) it was > 7.00; with MYB mRNA (MYB canonical junction mRNA, RT-qPCR, read-out: MYB CJ (decrease in CJ mRNA levels, IC50)), > 7.00; in the data set on MYB mRNA (canonical junction qPCR panel, Table 4, read-out: MYB IC50 (decrease in CJ mRNA levels)), > 7.00; with SMN2 mRNA it was > 7.00.
With `Cc1cn2cc(-c3ncc4cc(N5C[C@H](C)N[C@@H](C)C5)ccc4n3)ccc2n1` [Compound 827], the figures for the AC50 with HTT mRNA (setting [1]) and with MYB mRNA (setting [4]) were 1000 to 10000 nM and 100 to 1000 nM, respectively. The pIC50 was 5.00 to 6.00 with HTT mRNA (setting [2]); 5.00 to 6.00 in the data set on HTT mRNA (setting [3]); 6.00 to 7.00 in the data set with MYB mRNA (setting [5]); 6.00 to 7.00 with MYB mRNA (setting [6]); > 7.00 in the data set with SMN2 mRNA (Homo sapiens). For the same compound, the “Effect of Exemplary Compounds” value in the data set with K562 cells is “B (B represents 100-1000 nM)”.
As to `C[C@H]1CN(c2ccc3nc(-c4cc(F)c5nc(CF)cn5c4)ncc3c2)C[C@H](C)N1` [Compound 829, 6-[(3S,5S)-3,5-dimethylpiperazin-1-yl]-2-[8-fluoro-2-(fluoromethyl)imidazo[1,2-a]pyridin-6-yl]quinazoline], the AC50 in the data set with HTT mRNA (setting [1]) and in the data set on MYB mRNA (setting [4]) was 100 to 1000 nM in each case. Further, the pIC50 in the data set on HTT mRNA (setting [2]) was 6.00 to 7.00; with HTT mRNA (setting [3]) it was 6.00 to 7.00; with MYB mRNA (setting [5]), > 7.00; with MYB mRNA (setting [6]), > 7.00; in the data set with SMN2 mRNA (Homo sapiens) it was > 7.00. In the data set on K562 cells, the “Effect of Exemplary Compounds” value is “B (B represents 100-1000 nM)”.
Regarding `COc1cc(-c2ncc3cc(N4C[C@@H](C)N[C@@H](C)C4)ccc3n2)cn2cc(C)nc12` [Compound 830], the AC50 with HTT mRNA (setting [1]) was > 10000 nM; in the data set with MYB mRNA (setting [4]) it was 100 to 1000 nM. For the same compound, the negative-log IC50 (pIC50) in the data set with HTT mRNA (setting [2]) was 5.00 to 6.00; in the data set on HTT mRNA (setting [3]), 5.00 to 6.00; in the data set on MYB mRNA (setting [5]), 6.00 to 7.00; in the data set on MYB mRNA (setting [6]), 6.00 to 7.00; with SMN2 mRNA (Homo sapiens) it was > 7.00. The “Effect of Exemplary Compounds” value with K562 cells is “B (B represents 100-1000 nM)”.
